From paper PMC6447767, “Simultaneous determination of the potent anti-tuberculosis regimen—Pyrazinamide, ethambutol, protionamide, clofazimine in beagle dog plasma using LC–MS/MS method coupled with 96-well format plate” (Journal of Pharmaceutical and Biomedical Analysis, 2019)
Read-outs that look alike come from different tables or passages of the source.

What was measured:
[1] = Stability of analytes in Beagle dog plasma (freeze-thaw, long-term, auto-sampler, bench-top); details: for %Stability recoveries (Mean ± SD), Freeze-thaw (−80 °C) / %Stability recoveries (Mean ± SD), Bench-top 4 h (4 °C) / %Stability recoveries (Mean ± SD), Long-term 40 days (−80 °C) / Stability accuracy under the test conditions: Beagle dog plasma; for %Stability recoveries (Mean ± SD), Freeze-thaw (−80 °C): 3 freeze-thaw cycles; for %Stability recoveries (Mean ± SD), Freeze-thaw (−80 °C) / %Stability recoveries (Mean ± SD), Bench-top 4 h (4 °C) / %Stability recoveries (Mean ± SD), Long-term 40 days (−80 °C) / %Stability recoveries (Mean ± SD), Auto-sampler 27 h (18 °C): n = 3; for %Stability recoveries (Mean ± SD), Auto-sampler 27 h (18 °C): processed Beagle dog plasma samples; for Stability accuracy under the test conditions: summary over all stability conditions and QC levels
[2] = Pharmacokinetic study of the PZA-EMB-PTO-CFZ combination after oral administration; details: beagle, dog, plasma, in combination; for AUC: AUC0-τ, 0 to 24/48 h; for AUC / AUC(0-inf) / Cmax / half-life: n = 6; for AUC(0-inf): AUC0-∞; for Tmax: n = 6, mean ± S.D.
in vivo = details: beagle, dog, po
[3] = Solubility in organic solvents noted during sample preparation
[4] = beagle, dog
[5] = High Dose (double of standard dose)
[6] = Low Dose (half of standard dose)
[7] = T1/2, High Dose (double of standard dose)
[8] = T1/2, Low Dose (half of standard dose)
[9] = T1/2, Medium Dose (standard dose)
[10] = Medium Dose (standard: PZA 93.2, EMB 20.7, PTO 15.5, CFZ 5.2 mg/kg)

Row | SMILES | %Stability recoveries (Mean ± SD), Freeze-thaw (−80 °C) ([1]; HQC) | %Stability recoveries (Mean ± SD), Bench-top 4 h (4 °C) ([1]; HQC) | %Stability recoveries (Mean ± SD), Long-term 40 days (−80 °C) ([1]; HQC) | %Stability recoveries (Mean ± SD), Auto-sampler 27 h (18 °C) ([1]; HQC) | %Stability recoveries (Mean ± SD), Freeze-thaw (−80 °C) ([1]; LQC) | %Stability recoveries (Mean ± SD), Bench-top 4 h (4 °C) ([1]; LQC) | %Stability recoveries (Mean ± SD), Long-term 40 days (−80 °C) ([1]; LQC) | %Stability recoveries (Mean ± SD), Auto-sampler 27 h (18 °C) ([1]; LQC) | Stability accuracy under the test conditions [1] | AUC [2, 5] | AUC [2, 6] | AUC ([2]; Medium Dose (standard dose)) | AUC(0-inf) [2, 5] | AUC(0-inf) [2, 6] | AUC(0-inf) ([2]; Medium Dose (standard dose)) | Cmax [2, 5] | Cmax [2, 6] | Cmax ([2]; Medium Dose (standard dose)) | half-life [2, 7] | half-life [2, 8] | other results
1 | NC(=O)c1cnccn1 [PZA, pyrazinamide] | 98.6 ± 0.7% | 95.4 ± 2.5% | 88.6 ± 0.9% | 102.5 ± 3.3% | 106.3 ± 3.0% | 95.2 ± 3.4% | 97.9 ± 2.0% | 101.1 ± 1.6% | 86.6–113.2% | 1970 ± 298 µg·h/mL | 50.2 ± 7.6 µg·h/mL | 1080 ± 187 µg·h/mL | 1970 ± 298 µg·h/mL | 50.2 ± 7.6 µg·h/mL | 1080 ± 188 µg·h/mL | 241000 ± 19200 ng/mL | 57000 ± 11900 ng/mL | 125000 ± 6700 ng/mL | 2.62 ± 0.1 h | 2.82 ± 0.08 h | half-life [2, 9]: 2.7 ± 0.21 h; Tmax [2, 5]: 1.33 ± 0.26 h; Tmax [2, 6]: 1.13 ± 0.54 h; Tmax [2, 10]: 1.04 ± 0.6 h
2 | CC(C)/N=c1\cc2n(-c3ccc(Cl)cc3)c3ccccc3nc-2cc1Nc1ccc(Cl)cc1 [CFZ, clofazimine] | 102.8 ± 2.3% | 96.1 ± 2.0% | 98.5 ± 2.3% | 103.3 ± 1.3% | 113.2 ± 3.8% | 92.5 ± 4.6% | 91.3 ± 1.0% | 95.3 ± 8.6% | 86.6–113.2% | 0.143 ± 0.0371 µg·h/mL | 0.0175 ± 0.00967 µg·h/mL | 0.0422 ± 0.0177 µg·h/mL | 0.147 ± 0.0374 µg·h/mL | 0.0238 ± 0.0118 µg·h/mL | 0.0531 ± 0.0221 µg·h/mL | 21.6 ± 7.32 ng/mL | 3.69 ± 1.32 ng/mL | 7.24 ± 2.58 ng/mL | 3.63 ± 1.49 h | 3.41 ± 1.31 h | half-life [2, 9]: 4.03 ± 1.16 h; Tmax (in vivo): 3.17 ± 0.98 h
3 | CC[C@@H](CO)NCCN[C@@H](CC)CO [EMB, ethambutol] | 98.0 ± 2.6% | 86.6 ± 0.9% | 101.8 ± 0.9% | 94.0 ± 5.0% | 106.6 ± 6.2% | 100.5 ± 4.8% | 109.3 ± 4.7% | 103.2 ± 3.6% | 86.6–113.2% | 58.7 ± 14.8 µg·h/mL | 7.88 ± 1.22 µg·h/mL | 18.5 ± 2.35 µg·h/mL | 59.2 ± 15 µg·h/mL | 7.98 ± 1.23 µg·h/mL | 18.7 ± 2.34 µg·h/mL | 21100 ± 4230 ng/mL | 2930 ± 890 ng/mL | 8720 ± 1150 ng/mL | 12 ± 0.62 h | 11.8 ± 1.31 h | Solubility in acetonitrile [3]: poor solubility; half-life [2, 9]: 12.7 ± 1.88 h; Tmax [2, 5]: 0.92 ± 0.38 h; Tmax [2, 6]: 1.25 ± 0.94 h; Tmax [2, 10]: 0.83 ± 0.2 h
4 | CCCc1cc(C(N)=S)ccn1 [PTO, protionamide] | – | – | – | – | – | – | – | – | – | – | – | – | – | – | – | – | – | – | – | – | Stability accuracy under the test conditions [4]: 86.6–113.2%
